In patent publication US20240101569A1, “SALT CRYSTALS” (INTRA-CELLULAR THERAPIES, INC., priority 2021, published 2024):

Assays:
[1] = Solubility study of free base crystalline and succinate salt crystalline forms (pH titration, chase equilibrium); assay type: physicochemical; conditions: water, thermodynamic from solid, aqueous, titration with UV-turbidity probe
Description: The solubilities of free base crystalline and succinate salt crystalline forms of 2-(4-acetylbenzyl)-3-((4-fluorophenyl)amino)-5,7,7-trimethyl-7,8-dihydro-2H-imidazo[1,2-a]pyrazolo[4,3-e]pyrimidin-4(5H)-one are compared. Samples are titrated in water or in a minimum of three titrations under co-solvent conditions from the pH where the sample is fully dissolved. The sample precipitates from solution are detected by a UV-turbidity probe, which corresponds to a kinetic solubility. After precipitation, base and acid titrants are alternately added to drive the sample back and forth across the equilibrium solubility of the neutral species (the intrinsic solubility). At this point, the samples would exist in a supersaturated or subsaturated state (i.e. chase equilibrium). The intrinsic solubilities are determined from the pH between the supersaturated and subsaturated states corresponding to an intrinsic solubility. The samples can be determined by extrapolation to aqueous media, when co-solvent conditions are used.
This degree of aqueous solubility predicts faster dissolution rates in vitro and in vivo.

[2] = test system: phosphodiesterase 1 (PDE 1); conditions: statement, no values; cited from earlier work
[3] = Pharmacokinetics study of succinate salt crystals in dogs; assay type: in vivo; conditions: 5 mg/kg orally, plasma; for DN AUC0-24 / DN Cmax: dose-normalised; for Cmax / Tmax / half-life / AUC(0-t): dog, po; for AUC(0-t): read-out: AUC0-24
Procedure: The succinate salt of 2-(4-acetylbenzyl)-3-((4-fluorophenyl)amino)-5,7,7-trimethyl-7,8-dihydro-2H-imidazo[1,2-a]pyrazolo[4,3-e]pyrimidin-4(5H)-one is administered to dogs at a dose of 5 mg/kg orally. A separate group of dogs is administered 2-(4-acetylbenzyl)-3-((4-fluorophenyl)amino)-5,7,7-trimethyl-7,8-dihydro-2H-imidazo[1,2-a]pyrazolo[4,3-e]pyrimidin-4(5H)-one free base 5 mg/kg orally. The analysis of drug concentration in plasma samples collected is analyzed.
The pharmacokinetic (PK) parameters are determined from the plasma concentration versus time data by non-compartmental methods with uniform weighting. The maximum observed concentration (Cmax) and the time of the maximum observed concentration (Tmax) are obtained from the bioanalytical raw data. The area-under-the-plasma concentration-time curve from time zero to the time of the last measurable sample (AUC) is calculated by the trapezoidal rule.

[4] = Solid-state properties of succinate salt crystals (stated in words); assay type: physicochemical

solubility [1]	DN AUC0-24 [3]	DN Cmax [3]	Cmax [3]	Tmax [3]	half-life [3]	AUC(0-t) [3]	hygroscopicity [4]	solubility (in words) [4]	stability [4]	Structure (SMILES)	PDE1 inhibition (in words) [2]
285 µg/mL	304.6 [ng · hr/mL]/[mg/kg]	41 [ng/mL]/[mg/kg]	205 ng/mL	1.3 h	6.8 h	1520 ng·h/mL	–	–	–	CC(=O)c1ccc(Cn2nc3c(c2Nc2ccc(F)cc2)C(=O)N(C)C2=NC(C)(C)CN23)cc1 [Free Base, 2-(4-acetylbenzyl)-3-((4-fluorophenyl)amino)-5,7,7-trimethyl-7,8-dihydro-2H-imidazo[1,2-a]pyrazolo[4,3-e]pyrimidin-4(5H)-one]	potent and selective
~7000 µg/mL	331.9 [ng · hr/mL]/[mg/kg]	123.8 [ng/mL]/[mg/kg]	619 ng/mL	0.4 h	7 h	1660 ng·h/mL	low hygroscopicity	good solubility	particularly stable	CC(=O)c1ccc(Cn2nc3c(c2Nc2ccc(F)cc2)C(=O)N(C)C2=NC(C)(C)CN23)cc1.O=C(O)CCC(=O)O [Succinate Salt, 2-(4-acetylbenzyl)-3-((4-fluorophenyl)amino)-5,7,7-trimethyl-7,8-dihydro-2H-imidazo[1,2-a]pyrazolo[4,3-e]pyrimidin-4(5H)-one succinate]	–
